The term inhibition denotes the change of the read-out against control, counted positive when it falls.

BACE1 enzyme, sequence (P56817 46-501): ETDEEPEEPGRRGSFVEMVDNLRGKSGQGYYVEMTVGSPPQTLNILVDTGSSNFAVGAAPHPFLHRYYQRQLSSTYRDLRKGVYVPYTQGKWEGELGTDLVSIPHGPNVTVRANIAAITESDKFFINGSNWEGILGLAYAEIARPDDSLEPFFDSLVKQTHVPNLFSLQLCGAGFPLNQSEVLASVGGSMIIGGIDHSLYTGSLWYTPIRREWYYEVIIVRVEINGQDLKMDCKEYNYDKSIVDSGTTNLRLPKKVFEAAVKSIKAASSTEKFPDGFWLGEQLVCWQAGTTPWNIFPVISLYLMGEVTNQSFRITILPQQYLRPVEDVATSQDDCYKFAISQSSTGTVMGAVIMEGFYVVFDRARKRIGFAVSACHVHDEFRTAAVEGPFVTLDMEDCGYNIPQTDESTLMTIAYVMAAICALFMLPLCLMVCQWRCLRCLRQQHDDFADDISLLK

The experiment concerns the target BACE1 enzyme (Homo sapiens (Human), UniProt P56817). The experiment in a line: BACE1 efficacy assay (FRET-based, commercial BACE1 kit). Format: biochemical. The note with it: test compound 10 μM, 3 nM enzyme, 250 nM substrate. As to the method: The efficacy assay was performed as a FRET-based assay using a commercially available BACE1 kit (Life Technologies, P2985). 2 μl test compound at 10 μM (final concentration) and 15 μl BACE1 enzyme from the kit (final concentration 3 nM) were preincubated for 15 minutes at room temperature before addition of 15 μl of substrate from the kit (250 nM final concentration) and incubated for additional 90 minutes at room temperature. The assay plate was subsequently read in a Pherastar (Ex540/Em590). […] The efficacy of the test compounds was evaluated at 10 μM (final concentration) and defined as the percent inhibition of the enzyme activity using the equation % inhibition=100%−normalized enzyme activity in percent.
As for `COc1cnc(C(=O)Nc2ccc(F)c([C@@]3(C)N=C(N)[C@@](C)(F)CC3(F)F)c2)nc1` [Compound 12, N-(3-((2R,5S)-6-amino-3,3,5-trifluoro-2,5-dimethyl-2,3,4,5-tetrahydropyridin-2-yl)-4-fluorophenyl)-5-methoxpyrimidine-2-carboxamide], the inhibition at 10 µM amounted to 104%.
Turning to `C[C@]1(F)CC(F)(F)[C@@](C)(c2cc(NC(=O)c3ccn(C(F)F)n3)ccc2F)N=C1N` [Compound 6, N-(3-((2R,5S)-6-amino-3,3,5-trifluoro-2,5-dimethyl-2,3,4,5-tetrahydropyridin-2-yl)-4-fluorophenyl)-1-(difluoromethyl)-1H-pyrazole-3-carboxamide], the inhibition at 10 µM was 100%.
With `Cc1cc(C(=O)Nc2ccc(F)c([C@@]3(C)N=C(N)[C@](C)(F)CC3(F)F)c2)on1` [Compound 40, N-(3-((2R,5R)-6-amino-3,3,5-trifluoro-2,5-dimethyl-2,3,4,5-tetrahydropyridin-2-yl)-4-fluorophenyl)-3-methylisoxazole-5-carboxamide], the inhibition at 10 µM was 69%.
Under `C[C@@]1(F)CC(F)(F)[C@@](C)(c2cc(NC(=O)c3ccc(Cl)cn3)ccc2F)N=C1N` [Compound 33, N-(3-((2R,5R)-6-amino-3,3,5-trifluoro-2,5-dimethyl-2,3,4,5-tetrahydropyridin-2-yl)-4-fluorophenyl)-5-chloropicolinamide] stands 103%; under `C[C@]1(F)CC(F)(F)[C@@](C)(c2cc(NC(=O)c3nc(CF)cs3)ccc2F)N=C1N` [Compound 15, N-(3-((2R,5S)-6-amino-3,3,5-trifluoro-2,5-dimethyl-2,3,4,5-tetrahydropyridin-2-yl)-4-fluorophenyl)-4-(fluoromethyl)thiazole-2-carboxamide], 101%; under `C[C@]1(F)CC(F)(F)[C@@](C)(c2cc(NC(=O)c3cnc(C(F)F)cn3)ccc2F)N=C1N` [Compound 16, N-(3-((2R,5S)-6-amino-3,3,5-trifluoro-2,5-dimethyl-2,3,4,5-tetrahydropyridin-2-yl)-4-fluorophenyl)-5-(difluoromethyl)pyrazine-2-carboxamide], 105%.
As to `C[C@]1(F)CC(F)(F)[C@@](C)(c2cc(NC(=O)c3ccc(C#N)cn3)ccc2F)N=C1N` [Compound 4, N-(3-((2R,5S)-6-amino-3,3,5-trifluoro-2,5-dimethyl-2,3,4,5-tetrahydropyridin-2-yl)-4-fluorophenyl)-5-cyanopicolinamide], the inhibition at 10 µM was 99%.
In the case of `C[C@]1(F)CC(F)(F)[C@@](C)(c2cc(NC(=O)c3nccs3)ccc2F)N=C1N` [Compound 8, N-(3-((2R,5S)-6-amino-3,3,5-trifluoro-2,5-dimethyl-2,3,4,5-tetrahydropyridin-2-yl)-4-fluorophenyl)thiazole-2-carboxamide], the inhibition at 10 µM stood at 104%.
On to `[2H]C([2H])([2H])Oc1ccc(C(=O)Nc2ccc(F)c([C@@]3(C)N=C(N)[C@](C)(F)CC3(F)F)c2)nc1` [Compound 43, N-(3-((2R,5R)-6-amino-3,3,5-trifluoro-2,5-dimethyl-2,3,4,5-tetrahydropyridin-2-yl)-4-fluorophenyl)-5-(methoxy-d3)picolinamide], for which the inhibition at 10 µM is 94%.
Under `C[C@@]1(F)CC(F)(F)[C@@](C)(c2cc(NC(=O)c3nc(CF)cs3)ccc2F)N=C1N` [Compound 31, N-(3-((2R,5R)-6-amino-3,3,5-trifluoro-2,5-dimethyl-2,3,4,5-tetrahydropyridin-2-yl)-4-fluorophenyl)-4-(fluoromethyl)thiazole-2-carboxamide] stands 102%; under `COc1cnc(C(=O)Nc2ccc(F)c([C@@]3(C)N=C(N)[C@](C)(F)CC3(F)F)c2)cn1` [Compound 25, N-(3-((2R,5R)-6-amino-3,3,5-trifluoro-2,5-dimethyl-2,3,4,5-tetrahydropyridin-2-yl)-4-fluorophenyl)-5-methoxypyrazine-2-carboxamide], 102%.
On to `C[C@]1(F)CC(F)(F)[C@@](C)(c2cc(NC(=O)c3ccc(C(F)(F)F)cn3)ccc2F)N=C1N` [Compound 11, N-(3-((2R,5S)-6-amino-3,3,5-trifluoro-2,5-dimethyl-2,3,4,5-tetrahydropyridin-2-yl)-4-fluorophenyl)-5-(trifluoromethyl)picolinamide], for which the inhibition at 10 µM was 99%.
For `Cc1nc(C(=O)Nc2ccc(F)c([C@@]3(C)N=C(N)[C@@](C)(F)CC3(F)F)c2)co1` [Compound 7, N-(3-((2R,5S)-6-amino-3,3,5-trifluoro-2,5-dimethyl-2,3,4,5-tetrahydropyridin-2-yl)-4-fluorophenyl)-2-methyloxazole-4-carboxamide], the inhibition at 10 µM amounted to 100%.
As to `C[C@@]1(F)CC(F)(F)[C@@](C)(c2cc(NC(=O)c3ccn(C(F)F)n3)ccc2F)N=C1N` [Compound 23, N-(3-((2R,5R)-6-amino-3,3,5-trifluoro-2,5-dimethyl-2,3,4,5-tetrahydropyridin-2-yl)-4-fluorophenyl)-1-(difluoromethyl)-1H-pyrazole-3-carboxamide], the inhibition at 10 µM was 102%.
In the case of `C[C@]1(F)CC(F)(F)[C@@](C)(c2cc(NC(=O)c3coc(C(F)F)n3)ccc2F)N=C1N` [Compound 13, N-(3-((2R,5S)-6-amino-3,3,5-trifluoro-2,5-dimethyl-2,3,4,5-tetrahydropyridin-2-yl)-4-fluorophenyl)-2-(difluoromethyl)oxazole-4-carboxamide], the inhibition at 10 µM turned out to be 99%.
Turning to `Cc1noc(C(=O)Nc2ccc(F)c([C@@]3(C)N=C(N)[C@@](C)(F)CC3(F)F)c2)n1` [Compound 21, N-(3-((2R,5S)-6-amino-3,3,5-trifluoro-2,5-dimethyl-2,3,4,5-tetrahydropyridin-2-yl)-4-fluorophenyl)-3-methyl-1,2,4-oxadiazole-5-carboxamide], the inhibition at 10 µM was 102%.
For `C[C@@]1(F)CC(F)(F)[C@@](C)(c2cc(NC(=O)c3nc(CF)co3)ccc2F)N=C1N` [Compound 30, N-(3-((2R,5R)-6-amino-3,3,5-trifluoro-2,5-dimethyl-2,3,4,5-tetrahydropyridin-2-yl)-4-fluorophenyl)-4-(fluoromethyl)oxazole-2-carboxamide], the inhibition at 10 µM stood at 103%.
As for `COc1cnc(C(=O)Nc2ccc(F)c([C@@]3(C)N=C(N)[C@](C)(F)CC3(F)F)c2)nc1` [Compound 26, N-(3-((2R,5R)-6-amino-3,3,5-trifluoro-2,5-dimethyl-2,3,4,5-tetrahydropyridin-2-yl)-4-fluorophenyl)-5-methoxypyrimidine-2-carboxamide], the inhibition at 10 µM is 102%.
Regarding `C[C@@]1(F)CC(F)(F)[C@@](C)(c2cc(NC(=O)c3nccs3)ccc2F)N=C1N` [Compound 36, N-(3-((2R,5R)-6-amino-3,3,5-trifluoro-2,5-dimethyl-2,3,4,5-tetrahydropyridin-2-yl)-4-fluorophenyl)thiazole-2-carboxamide], the inhibition at 10 µM worked out at 100%.
Regarding `Cc1csc(C(=O)Nc2ccc(F)c([C@@]3(C)N=C(N)[C@](C)(F)CC3(F)F)c2)n1` [Compound 27, N-(3-((2R,5R)-6-amino-3,3,5-trifluoro-2,5-dimethyl-2,3,4,5-tetrahydropyridin-2-yl)-4-fluorophenyl)-4-methylthiazole-2-carboxamide], the inhibition at 10 µM was 98%.
The same measure for `Cn1cc(Br)nc1C(=O)Nc1ccc(F)c([C@@]2(C)N=C(N)[C@@](C)(F)CC2(F)F)c1` [Compound 9, N-(3-((2R,5S)-6-amino-3,3,5-trifluoro-2,5-dimethyl-2,3,4,5-tetrahydropyridin-2-yl)-4-fluorophenyl)-4-bromo-1-methyl-1H-imidazole-2-carboxamide]: 103%; for `Cn1ccc(C(=O)Nc2ccc(F)c([C@@]3(C)N=C(N)[C@](C)(F)CC3(F)F)c2)n1` [Compound 39, N-(3-((2R,5R)-6-amino-3,3,5-trifluoro-2,5-dimethyl-2,3,4,5-tetrahydropyridin-2-yl)-4-fluorophenyl)-1-methyl-1H-pyrazole-3-carboxamide]: 74%.
`Cc1nc(C(=O)Nc2ccc(F)c([C@@]3(C)N=C(N)[C@](C)(F)CC3(F)F)c2)no1` [Compound 35, N-(3-((2R,5R)-6-amino-3,3,5-trifluoro-2,5-dimethyl-2,3,4,5-tetrahydropyridin-2-yl)-4-fluorophenyl)-5-methyl-1,2,4-oxadiazole-3-carboxamide]: the inhibition at 10 µM was determined as 100%.
Consider `Cc1nc(C(=O)Nc2ccc(F)c([C@@]3(C)N=C(N)[C@](C)(F)CC3(F)F)c2)co1` [Compound 34, N-(3-((2R,5R)-6-amino-3,3,5-trifluoro-2,5-dimethyl-2,3,4,5-tetrahydropyridin-2-yl)-4-fluorophenyl)-2-methyloxazole-4-carboxamide], for which the inhibition at 10 µM was determined as 102%.
In the case of `Cc1cn(C)c(C(=O)Nc2ccc(F)c([C@@]3(C)N=C(N)[C@](C)(F)CC3(F)F)c2)n1` [Compound 38, N-(3-((2R,5R)-6-amino-3,3,5-trifluoro-2,5-dimethyl-2,3,4,5-tetrahydropyridin-2-yl)-4-fluorophenyl)-1,4-dimethyl-1H-imidazole-2-carboxamide], the inhibition at 10 µM was determined as 98%.
Consider `C[C@@]1(F)CC(F)(F)[C@@](C)(c2cc(NC(=O)c3ccc(Cl)cc3)ccc2F)N=C1N` [Compound 44, N-(3-((2R,5R)-6-amino-3,3,5-trifluoro-2,5-dimethyl-2,3,4,5-tetrahydropyridin-2-yl)-4-fluorophenyl)-4-chlorobenzamide], for which the inhibition at 10 µM came out at 92%.
For the compound `Cc1cc(F)cnc1C(=O)Nc1ccc(F)c([C@@]2(C)N=C(N)[C@@](C)(F)CC2(F)F)c1` [Compound 49, N-(3-((2R,5S)-6-amino-3,3,5-trifluoro-2,5-dimethyl-2,3,4,5-tetrahydropyridin-2-yl)-4-fluorophenyl)-5-fluoro-3-methylpicolinamide], the inhibition at 10 µM is 98%.
